Experimental findings from patent US10555915B2, “Methods for treating acute acoustic trauma” (Hough Ear Institute, priority 2009, dated 2020) are described below.

The subject of experiment [1] is AAT-induced hearing loss. Briefly: Chinchilla AAT model, oral treatment, ABR threshold shift. In kind it is in vivo, chinchilla laniger.
Method: The treatments were administered a total of five times including one dose 4 hours post-AAT, and two doses daily on days 1 and 2 post AAT.
Hearing was assessed as auditory brainstem response (ABR) which was measured at between 1 and 3 days prior to AAT and at one or more of the following time points post AAT: 1 hr, 8 hr, 24 hr 7 day and 21 days. The 21 day test point was considered the permanent threshold shift (PTS). ABR recordings were performed under light ketamine (20 mg/kg) and xylazine (1 mg/kg) anesthesia. Small supplemental doses (⅓ of initial dose) were given if needed. ABR thresholds were recorded from subcutaneous needle electrodes placed under the skin of the head. […] Auditory stimuli was generated using a computer-aided system (Intelligent Hearing Systems, Miami, Fla.) coupled to high frequency transducers. Acoustic stimuli were tone pips (5 ms duration and 1 ms Blackman rise and fall) at frequencies of 0.5, 1, 2, 4, 6, 8, and 16 kHz. All acoustic stimuli were transduced through the computer-controlled attenuator to a 3A insert earphone [Etyniotic Research (ER)-3A, Etymotic Research Inc., Elk Grove Village, Ill.] placed about 5 mm from the tympanic membrane. The insert earphone was calibrated with a coupler mounted to the sound level meter approximating its placement. The electrical responses obtained from the electrodes were amplified (×100,000), filtered (100-3,000 Hz), and digitized through an A/D converter on a signal processing board. They were averaged at a sample rate of 1024 for each level.
Hearing thresholds were tested in 10 dB descending steps until near the threshold, and then 5 dB ascending steps were taken to determine the threshold. Threshold was defined as the midpoint between the lowest level of a clear response and the next level where no response was observed. The threshold shift refers to the difference in threshold prior to and following AAT. The investigators performing the ABR measurements were blinded as to the identity of the animal groups.
Statistically significant differences in threshold shifts were tested via ANOVA (SPSS 14.0 for Windows).
Experiment [2] relates to AAT-induced hearing loss. The experiment in a line: Chinchilla AAT model, NAC intraperitoneal, ABR threshold shift. In kind it is in vivo. The settings on record: FIG. 3; for threshold shift at 21 days following AAT exposure: p<0.05. The procedure:
For the experiments and examples described herein, the following methods were generally employed except for those described with respect to FIG. 5. Female adult chinchilla laniger (Mouton Chinchilla Ranch, Rochester, Minn.) weighing 500-850 grams were placed, two at a time, in two small wire restraint cages on a wooden plate where the AAT was induced by a 105 dB SPL octave-band noise centered at 4 kHz for 6 hours in a sound isolation booth [Industrial Acoustics Company (IAC), New York, N.Y.]. The noise was digitally generated by a Tucker Davis Technologies (TDT, Alachua, Fla.) device and passed through a real time attenuator (TDT, RP2), filtered, amplified with a preamplifier (QSC audio power, Costa Mesa, Calif.), and transduced with a high frequency acoustic driver and an acoustic speaker (JBL 2350, Northridge, Calif.) suspended from the ceiling of the sound booth which is placed directly above the wire cages. Before noise exposure, the sound spectrum output of the system was calibrated with a sound level meter centered at an octave bandwidth of 4 kHz. A condenser microphone (B&K 2804, Norcross, Ga.) coupled to the preamplifier was placed between the two wire cages at the level of the animals' heads to monitor the noise level. During noise exposure, the noise level was continually and visually monitored using the PULSE software system [B&K Sound & Vibration Measurement (version 10.0), Norcross, Ga.] including FFT Analysis Type 7770 and CPB Analysis 7771. […]
Hearing was assessed as auditory brainstem response (ABR) which was measured at between 1 and 3 days prior to AAT and at one or more of the following time points post AAT: 1 hr, 8 hr, 24 hr 7 day and 21 days. […] ABR thresholds were recorded from subcutaneous needle electrodes placed under the skin of the head. […]

SMILES strings stand for the structures.

With `CC(C)(C)[N+]([O-])=Cc1ccc(S(=O)(=O)O)cc1S(=O)(=O)O` [HPN-07, 2,4-disulfonyl α-phenyl tertiary butyl nitrone], the “average threshold shift at each individual frequency (0.5, 1, 2, 4, 6 and 8 kHz)” value with AAT-induced hearing loss [1] (300 mg/kg oral, compared to control, FIG. 2) was “most pronounced effect of HPN-07 occurred at 0.5, 1, 6 and 8 kHz, while the effect was less prominent at 2 and 4 kHz”. Further, the “average threshold shift across all frequencies tested” value with AAT-induced hearing loss [1] (21 days post AAT, 300 mg/kg oral, five doses from 4 hours post-AAT, compared to control animals, FIG. 1) is recorded as “significantly decreased average threshold shift”. For the same compound, in the experiment on AAT-induced hearing loss [1] (21 days post AAT, oral, 300 mg/kg HPN-07 alone or + 300 mg/kg NAC, vs control (10% sucrose), FIG. 4A), the “average threshold shift for each individual frequency tested” value is “significant reduction in threshold shift at 0.5, 1, 4 and 6 kHz”. In addition, the “combined average threshold shift from 2 kHz to 8 kHz” value with AAT-induced hearing loss [1] (21 days post AAT, oral, vs control, FIG. 4B) is “overall significant reduction in threshold shift”. For the same compound, the “outer hair cell loss” value in the experiment with AAT-induced hearing loss [1] (expected in view of ABR data, compared to the control group) is “statistically significant reduction in outer hair cell loss”. Besides, the “protection from hearing loss due to AAT” value in the experiment on AAT-induced hearing loss [1] (oral administration to chinchillas exposed to AAT, summary statement) is “significantly protected them from hearing loss”.
As to `CC(=O)N[C@@H](CS)C(=O)O` [NAC, N-acetylcysteine], the “threshold shift at 21 days following AAT exposure” value with AAT-induced hearing loss [2] (100 mg/kg NAC i.p.) and in the experiment on AAT-induced hearing loss [2] (200 mg/kg NAC i.p.) was “significant decrease in threshold shift” in each case. Moreover, the “threshold shift soon after treatment” value in the experiment on AAT-induced hearing loss [2] (NAC i.p. 4 hours post AAT) is “mild effect on threshold shift”.
